{"source": "paper PMC4233179", "about": "(Molecular cancer research : MCR, 2014)", "target": "T1, NEDD4-1 (Homo sapiens, UniProt P46934)", "T1 sequence (P46934 1-1319)": "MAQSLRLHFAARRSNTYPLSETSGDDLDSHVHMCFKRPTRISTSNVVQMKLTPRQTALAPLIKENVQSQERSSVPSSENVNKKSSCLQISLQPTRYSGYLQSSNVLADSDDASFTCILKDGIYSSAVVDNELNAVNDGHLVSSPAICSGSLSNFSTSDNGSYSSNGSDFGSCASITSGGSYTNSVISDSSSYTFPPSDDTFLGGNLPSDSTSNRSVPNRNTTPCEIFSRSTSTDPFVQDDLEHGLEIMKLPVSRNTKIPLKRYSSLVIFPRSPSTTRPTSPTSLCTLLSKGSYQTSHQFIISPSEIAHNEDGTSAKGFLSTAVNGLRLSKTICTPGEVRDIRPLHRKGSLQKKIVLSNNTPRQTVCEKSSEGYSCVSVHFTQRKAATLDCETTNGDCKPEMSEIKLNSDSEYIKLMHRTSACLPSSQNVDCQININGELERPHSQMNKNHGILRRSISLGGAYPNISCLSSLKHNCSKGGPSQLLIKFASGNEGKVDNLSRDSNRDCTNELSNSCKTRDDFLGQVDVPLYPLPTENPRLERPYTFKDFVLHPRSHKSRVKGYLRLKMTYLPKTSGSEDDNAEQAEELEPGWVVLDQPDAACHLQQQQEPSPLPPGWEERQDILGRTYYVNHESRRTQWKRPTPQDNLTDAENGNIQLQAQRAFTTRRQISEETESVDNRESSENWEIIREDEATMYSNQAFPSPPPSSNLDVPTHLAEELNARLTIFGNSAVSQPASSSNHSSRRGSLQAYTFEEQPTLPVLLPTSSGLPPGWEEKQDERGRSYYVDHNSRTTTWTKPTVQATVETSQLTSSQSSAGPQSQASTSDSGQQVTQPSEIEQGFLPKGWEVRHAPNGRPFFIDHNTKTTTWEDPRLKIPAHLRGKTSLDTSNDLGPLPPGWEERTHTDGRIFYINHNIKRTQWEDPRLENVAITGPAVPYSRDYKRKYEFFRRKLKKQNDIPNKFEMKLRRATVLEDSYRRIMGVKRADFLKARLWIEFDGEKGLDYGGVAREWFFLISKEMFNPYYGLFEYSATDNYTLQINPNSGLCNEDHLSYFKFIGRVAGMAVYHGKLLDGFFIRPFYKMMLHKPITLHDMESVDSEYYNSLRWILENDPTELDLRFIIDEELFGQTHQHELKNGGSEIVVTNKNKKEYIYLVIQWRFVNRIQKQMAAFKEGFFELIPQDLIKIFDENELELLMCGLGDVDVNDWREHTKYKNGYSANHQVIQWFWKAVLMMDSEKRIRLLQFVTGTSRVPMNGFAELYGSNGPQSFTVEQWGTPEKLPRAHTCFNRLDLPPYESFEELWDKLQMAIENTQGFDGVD", "experiment": "isothermal titration calorimetry", "format": "binding"}
{"smiles": "OCc1c[nH]c2ccccc12", "note": "[I3C, indole-3-carbinol]", "values": [{"measurement": "Kd", "result": "~88.1", "unit": "µM"}]}
